Among the data in ChEMBL document CHEMBL4130434, “Antineoplastic Agents. 604. The Path of Quinstatin Derivatives to Antibody Drug Conjugates” (2017) are GI50 values, retold here.

Each structure is given as a SMILES string. *1 amine or outer side, *2 acyl side, *3 side chain or, on linkers, in order; H or OH if unused. Where a SMILES comes first, the peptide text is derived from it. [ ]: non-standard residue; d: D form. The star is where a group is joined. Dolaproine = CO[C@@H]([C@@H]1CCCN1)[C@@H](C)C(=O)O; Hexanoyl(6-maleimido) = O=C1C=CC(=O)N1CCCCCC(=O)*; Dil = CC[C@H](C)[C@H](NC)[C@@H](CC(=O)O)OC; PABC = O=C(OCc1ccc(N[*:1])cc1)[*:2]; Cit = NC(=O)NCCC[C@H](N)C(=O)O; NMeV = CN[C@H](C(=O)O)C(C)C; X1 = c1cnc2c(CCN*)cccc2c1; X2 = c1cc(CCN*)c2cccnc2c1; X3 = c1ccc2c(CCN*)ccnc2c1; X4 = c1ccc2nc(CCN*)ccc2c1

Common to all, as to type: functional
Assay [1] deals with DU-145. Kind of assay: Growth inhibition of human DU145 cells after 48 hrs by SRB assay. The following applies: DU-145, 48 h. (The SRB assay estimates cell density from bound dye.)
Assay [2] concerns BXPC-3. Kind of assay: Growth inhibition of human BxPC3 cells after 48 hrs by SRB assay. The following applies: BXPC-3, 48 h.
Assay [3] deals with NCI-H460. Kind of assay: Growth inhibition of human NCI-H460 cells after 48 hrs by SRB assay. Particulars: NCI-H460, 48 h.
Assay [4] relates to MCF7. Put plainly: Growth inhibition of human MCF7 cells after 48 hrs by SRB assay. The following applies: MCF7, 48 h.
Assay [5] relates to SF-268. Kind of assay: Growth inhibition of human SF268 cells after 48 hrs by SRB assay. The following applies: SF-268, 48 h.
Assay [6] concerns KM-20L2. Kind of assay: Growth inhibition of human KM20L2 cells after 48 hrs by SRB assay. The following applies: KM-20L2, 48 h.

On to `CC[C@H](C)[C@@H]([C@@H](CC(=O)N1CCC[C@H]1[C@H](OC)[C@@H](C)C(=O)NCCc1ccc2ccccc2n1)OC)N(C)C(=O)[C@@H](NC(=O)[C@@H](NC)C(C)C)C(C)C` (H-[NMeV]V[Dil][Dolaproine]-X4), for which the GI50 (usually the concentration at which growth is held to half of that of the control) in assay [1] worked out at 12.2 nM; in assay [2], 81.2 nM; in assay [3] it was 392 nM; in assay [4], 4.06 nM; in assay [5], 1.22 nM; in assay [6], 3.24 nM.

As to `CC[C@H](C)[C@@H]([C@@H](CC(=O)N1CCC[C@H]1[C@H](OC)[C@@H](C)C(=O)NCCc1ccnc2ccccc12)OC)N(C)C(=O)[C@@H](NC(=O)[C@@H](NC)C(C)C)C(C)C` (H-[NMeV]V[Dil][Dolaproine]-X3), the GI50 in assay [1] turned out to be 0.135 nM; in assay [2], 67.7 nM; in assay [3] it was 67.7 nM; in assay [4], 0.149 nM; in assay [5], 0.176 nM; in assay [6] it was 0.596 nM.

Consider `CC[C@H](C)[C@@H]([C@@H](CC(=O)N1CCC[C@H]1[C@H](OC)[C@@H](C)C(=O)NCCc1cccc2cccnc12)OC)N(C)C(=O)[C@@H](NC(=O)[C@@H](NC)C(C)C)C(C)C` (H-[NMeV]V[Dil][Dolaproine]-X1), for which the GI50 in assay [1] amounted to 0.07 nM; in assay [2], 11.5 nM; in assay [3], 14.9 nM; in assay [4], 0.06 nM; in assay [5] it was 0.06 nM; in assay [6], 0.203 nM.

Consider `CC[C@H](C)[C@@H]([C@@H](CC(=O)N1CCC[C@H]1[C@H](OC)[C@@H](C)C(=O)NCCc1cccc2cccnc12)OC)N(C)C(=O)[C@@H](NC(=O)[C@H](C(C)C)N(C)C(=O)OCc1ccc(NC(=O)[C@H](CCCNC(N)=O)NC(=O)[C@@H](NC(=O)CCCCCN2C(=O)C=CC2=O)C(C)C)cc1)C(C)C` ({Hexanoyl(6-maleimido)}-V[Cit][PABC][NMeV]V[Dil][Dolaproine]-X1), for which the 50% growth inhibitory concentration (GI50) in assay [1] came out at 5.98 nM; in assay [2], 449 nM; in assay [3], 449 nM; in assay [4], 15 nM; in assay [5] it was 3.52 nM; in assay [6], 23.9 nM.

For `CC[C@H](C)[C@@H]([C@@H](CC(=O)N1CCC[C@H]1[C@H](OC)[C@@H](C)C(=O)NCCc1cccc2ncccc12)OC)N(C)C(=O)[C@@H](NC(=O)[C@@H](NC)C(C)C)C(C)C` (H-[NMeV]V[Dil][Dolaproine]-X2), the GI50 in assay [1] came to 0.812 nM; in assay [2], 27.1 nM; in assay [3], 37.9 nM; in assay [4] it was 0.298 nM; in assay [5] it was 0.311 nM; in assay [6], 0.582 nM.

As for `CC[C@H](C)[C@@H]([C@@H](CC(=O)N1CCC[C@H]1[C@H](OC)[C@@H](C)C(=O)N[C@@H](Cc1ccccc1)c1nccs1)OC)N(C)C(=O)[C@@H](NC(=O)[C@H](C(C)C)N(C)C)C(C)C` [DOLASTATIN-10], the GI50 in assay [1] came to 0.007 nM; in assay [2], 0.051 nM; in assay [3] it was 0.229 nM; in assay [4], 0.005 nM; in assay [5], 0.006 nM; in assay [6], 0.01 nM.

Consider `CC[C@H](C)[C@@H]([C@@H](CC(=O)N1CCC[C@H]1[C@H](OC)[C@@H](C)C(=O)NCCc1cccc2ncccc12)OC)N(C)C(=O)[C@@H](NC(=O)[C@H](C(C)C)N(C)C(=O)OCc1ccc(NC(=O)[C@H](CCCNC(N)=O)NC(=O)[C@@H](NC(=O)CCCCCN2C(=O)C=CC2=O)C(C)C)cc1)C(C)C` ({Hexanoyl(6-maleimido)}-V[Cit][PABC][NMeV]V[Dil][Dolaproine]-X2), for which the 50% growth inhibitory concentration (GI50) amounted to 4.49 nM in assay [1]; 299 nM in assay [2]; 247 nM in assay [3]; 5.23 nM in assay [4]; 2.99 nM in assay [5]; 11.2 nM in assay [6].

As to `CC[C@H](C)[C@@H]([C@@H](CC(=O)N1CCC[C@H]1[C@H](OC)[C@@H](C)C(=O)NCCc1ccnc2ccccc12)OC)N(C)C(=O)[C@@H](NC(=O)[C@H](C(C)C)N(C)C(=O)OCc1ccc(NC(=O)[C@H](CCCNC(N)=O)NC(=O)[C@@H](NC(=O)CCCCCN2C(=O)C=CC2=O)C(C)C)cc1)C(C)C` ({Hexanoyl(6-maleimido)}-V[Cit][PABC][NMeV]V[Dil][Dolaproine]-X3), the GI50 turned out to be 31.4 nM in assay [1]; 1570 nM in assay [2]; 2620 nM in assay [3]; 30.7 nM in assay [4]; 29.9 nM in assay [5]; 38.9 nM in assay [6].
